15 compounds from patent US9409952B2, “Peptide-compound cyclization method” (Chugai Seiyaku Kabushiki Kaisha, priority 2011, dated 2016) can be followed below.

Structures are written as SMILES. Starred links: 1 amine or outer side, 2 acyl side, 3 side chain; linkers in the order of their positions; H or OH if unused. Positions of bridges follow the written chain, without caps; N, C: chain ends. Non-standard residues stand in square brackets, D forms with d. Residues, ends and D or L forms follow the SMILES beside them. *: point of attachment. Arg(Me2s) = CN=C(NC)NCCC[C@H](N)C(=O)O; Lys(Me2) = CN(C)CCCC[C@H](N)C(=O)O; NMeF = CN[C@@H](Cc1ccccc1)C(=O)O; NMeI = CC[C@H](C)[C@H](NC)C(=O)O; NMeβAla = CN(CCC(=O)[*:2])[*:1]; NMeL = CN[C@@H](CC(C)C)C(=O)O; NMeV = CN[C@H](C(=O)O)C(C)C; NMeA = CN[C@@H](C)C(=O)O; Piperidide = C1CCN(*)CC1; dNMeA = CN[C@H](C)C(=O)O; Sar = CNCC(=O)O

One series in a line: PAMPA (parallel artificial membrane permeability assay). The class given is in vitro ADME. Particulars: PAMPA, pH 6.5. The procedure: 4 μL of a phospholipid-organic solvent solution composed of 10% (w/v) of egg lecithin, 0.5% (w/v) of cholesterol and dodecane (all purchased from Fluka) was added to a Millipore 96-well membrane filter (hydrophobic PVDF (polyvinylidene difluoride), pore size 0.45 microm) (purchased from Millipore Japan) to make an artificial phospholipid membrane.
A DMSO solution containing the compound at a concentration of 10 mM was added in a percentage of 0.5% (v/v) to a 50 mM MOPSO buffer, pH 6.5, containing 5.0% (w/v) of glycocholic acid, and 330 μL of the mixture was added to a 96-well plate made of Teflon (donor plate). The above artificial phospholipid membrane plate was attached onto the donor plate, and 280 μL of a solution obtained by adding DMSO in a percentage of 0.5% (v/v) to a 50 mM MOPSO buffer, pH 6.5, containing 5.0% (w/w) of glycocholic acid was added onto the artificial phospholipid membrane (acceptor plate). These plates were allowed to stand at 37° C. for 18 hours, after which the concentrations of the compound in the solutions in the donor plate and the acceptor plate were measured by LC/MS or LC/UV, and the membrane permeation rate of the compound (Pe) was calculated by the following formulas (1) and (2), where t is the testing time, A is the membrane filter area, VD is the amount of the donor solution, VA is the amount of the acceptor solution, CD,t is the concentration of the compound in the donor solution at the time t, and CA,t is the concentration of the compound in the acceptor solution at the time t.
(In general: PAMPA measures passive passage across an artificial lipid membrane.)
`CC(C)C[C@@H]1NC(=O)[C@H](CCCCN(C)C)NC(=O)[C@@H]2CCCN2C(=O)[C@H](C)NC(=O)[C@H](CC(C)C)N(C)C(=O)[C@H](Cc2ccccc2)NC(=O)[C@H](CC(C)C)N(C)C(=O)[C@H](CC(C)C)N(C)C(=O)[C@H](Cc2ccccc2)NC(=O)CN(C)C(=O)C[C@@H](C(=O)N(C)[C@@H](Cc2ccccc2)C(=O)N[C@@H](C)C(=O)N2CCCCC2)NC1=O` [DP-593] ([Sar]F[NMeL][NMeL]F[NMeL]AP[Lys(Me2)]LD[NMeF]A-Piperidide; lactam N-11) came in with a Papp at 18 hours, 50 µM of 1.1 ×10⁻⁶ cm/s.
On the same count and under the same terms, the figure for `CC(C)C[C@@H]1NC(=O)[C@H](CCC(=O)O)NC(=O)[C@H](Cc2ccccc2)N(C)C(=O)[C@H](CC(C)C)NC(=O)[C@H](CC(C)C)N(C)C(=O)[C@H](Cc2ccccc2)NC(=O)[C@H](CC(C)C)N(C)C(=O)[C@H](CC(C)C)N(C)C(=O)[C@H](Cc2ccccc2)NC(=O)CN(C)C(=O)C[C@@H](C(=O)N(C)[C@@H](Cc2ccccc2)C(=O)N[C@@H](C)C(=O)N2CCCCC2)NC1=O` [DP-596] ([Sar]F[NMeL][NMeL]F[NMeL]L[NMeF]ELD[NMeF]A-Piperidide; lactam N-11) is 3.2 ×10⁻⁶ cm/s.

Still in this series, the particulars now being: PAMPA; membrane permeation rate (Pe); 50 mM MOPSO buffer pH 6.5 with 5.0% glycocholic acid, 37° C., 18 hours; read-out: iPAMPA Pe.
`CC(C)[C@@H]1NC(=O)[C@H](Cc2ccccc2)N(C)C(=O)[C@H](C)N(C)C(=O)[C@H]([C@@H](C)O)NC(=O)CNC(=O)[C@H](C)N(C)C(=O)[C@H](Cc2ccccc2)NC(=O)[C@H](C)N(C)C(=O)C[C@@H](C(=O)N(C)[C@@H](Cc2ccccc2)C(=O)N(C)[C@@H](Cc2ccccc2)C(=O)N[C@@H](C)C(=O)N2CCCCC2)NC(=O)[C@H](C(C)C)N(C)C1=O` [DP-393] ([NMeA]F[NMeA]GT[NMeA][NMeF]V[NMeV]D[NMeF][NMeF]A-Piperidide; lactam N-10): the Papp at 18 hours, 50 µM was found to be 18 ×10⁻⁶ cm/s.
On the same count and under the same terms, the figure for `CC[C@H](C)[C@@H]1NC(=O)[C@H](CC(C)C)N(C)C(=O)[C@H](CC(C)C)N(C)C(=O)[C@H](C)N(C)C(=O)[C@H]([C@@H](C)O)NC(=O)[C@H](Cc2ccccc2)N(C)C(=O)[C@@H](C)N(C)C(=O)C[C@@H](C(=O)N(C)[C@@H](Cc2ccccc2)C(=O)N(C)[C@@H](Cc2ccccc2)C(=O)N[C@@H](C)C(=O)N2CCCCC2)NC(=O)[C@H](C(C)C)N(C)C1=O` [DP-399] ([dNMeA][NMeF]T[NMeA][NMeL][NMeL]I[NMeV]D[NMeF][NMeF]A-Piperidide; lactam N-9) is 0.89 ×10⁻⁶ cm/s; for `CC[C@H](C)[C@@H]1NC(=O)[C@H](Cc2ccccc2)N(C)C(=O)[C@H](C)N(C)C(=O)[C@H](CC(C)C)N(C)C(=O)[C@H](Cc2ccccc2)N(C)C(=O)CCN(C)C(=O)C[C@@H](C(=O)N(C)[C@@H](Cc2ccccc2)C(=O)N(C)[C@@H](Cc2ccccc2)C(=O)N[C@@H](C)C(=O)N2CCCCC2)NC(=O)[C@H]([C@@H](C)O)NC(=O)[C@H](CC(C)C)N(C)C(=O)[C@H](CC(C)C)N(C)C1=O` [DP-499] ([NMeβAla][NMeF][NMeL][NMeA][NMeF]I[NMeL][NMeL]TD[NMeF][NMeF]A-Piperidide; lactam N-10) it is 0.31 ×10⁻⁶ cm/s; for `CC[C@H](C)[C@@H]1NC(=O)[C@H](C)N(C)C(=O)[C@H]([C@@H](C)O)NC(=O)[C@H](CC(C)C)N(C)C(=O)[C@H](Cc2ccccc2)N(C)C(=O)[C@H](C)N(C)C(=O)[C@@H](C(C)C)NC(=O)C[C@@H](C(=O)N(C)[C@@H](Cc2ccccc2)C(=O)N(C)[C@@H](Cc2ccccc2)C(=O)N[C@@H](C)C(=O)N2CCCCC2)NC(=O)[C@H](C(C)C)N(C)C(=O)[C@H](CC(C)C)N(C)C1=O` [DP-510] ([dV][NMeA][NMeF][NMeL]T[NMeA]I[NMeL][NMeV]D[NMeF][NMeF]A-Piperidide; lactam N-10) it is 2.2 ×10⁻⁶ cm/s.
Turning to `CC[C@H](C)[C@H](NC(=O)[C@H](C)N(C)C(=O)[C@@H](NC(=O)[C@H](Cc1ccccc1)N(C)C(=O)[C@H](CC(C)C)N(C)C(=O)[C@@H]1CC(=O)N[C@H](C)C(=O)N[C@@H](C(C)C)C(=O)N(C)[C@@H](Cc2ccccc2)C(=O)N(C)[C@@H](CC(C)C)C(=O)N(C)[C@@H](C)C(=O)N[C@@H]([C@@H](C)O)C(=O)N[C@@H](Cc2ccccc2)C(=O)N1)C(C)C)C(=O)N1CCCCC1` [DP-570] ([dA]V[NMeF][NMeL][NMeA]TFD[NMeL][NMeF]V[NMeA]I-Piperidide; lactam N-8), the Papp at 18 hours, 50 µM was determined as 2.1 ×10⁻⁶ cm/s.
On the same count and under the same terms, the figure for `CC(C)C[C@H]1C(=O)N(C)[C@@H](Cc2ccccc2)C(=O)N(C)[C@@H](CC(C)C)C(=O)N[C@H](C(=O)N(C)[C@@H](Cc2ccccc2)C(=O)N[C@@H](Cc2ccccc2)C(=O)N2CCCCC2)CC(=O)N[C@H](C(C)C)C(=O)N[C@@H](C)C(=O)N[C@@H]([C@@H](C)O)C(=O)N(C)[C@@H](C)C(=O)N[C@@H](Cc2ccccc2)C(=O)N1C` [DP-577] ([dV]AT[NMeA]F[NMeL][NMeF][NMeL]D[NMeF]F-Piperidide; lactam N-9) is 0.94 ×10⁻⁶ cm/s.
On the same count and under the same terms, the figure for `CC[C@H](C)[C@H](NC(=O)[C@H](C)N(C)C(=O)[C@@H]1CC(=O)N(C)[C@H](C)C(=O)N(C)[C@@H](C)C(=O)N(C)[C@@H](Cc2ccccc2)C(=O)N(C)[C@@H](CC(C)C)C(=O)N[C@@H]([C@@H](C)O)C(=O)N(C)[C@@H](C)C(=O)N(C)[C@@H](CC(C)C)C(=O)N[C@@H](CO)C(=O)N1)C(=O)N1CCC[C@H]1C(=O)N[C@H](C(=O)N[C@@H](C)C(=O)N1CCCCC1)C(C)C` [DP-578] ([dNMeA][NMeA][NMeF][NMeL]T[NMeA][NMeL]SD[NMeA]IPVA-Piperidide; lactam N-9) is 3.4 ×10⁻⁶ cm/s; for `CC(C)C[C@H]1C(=O)N(C)[C@@H](CC(C)C)C(=O)N[C@H](C(=O)N(C)[C@@H](Cc2ccccc2)C(=O)N[C@@H](C)C(=O)N2CCCCC2)CC(=O)N[C@H](C(C)C)C(=O)N(C)[C@@H](C)C(=O)N(C)[C@@H](Cc2ccccc2)C(=O)N(C)[C@@H](CC(C)C)C(=O)N[C@@H](Cc2c[nH]cn2)C(=O)N(C)CC(=O)N[C@@H](C(C)C)C(=O)N1C` [DP-585] ([dV][NMeA][NMeF][NMeL]H[Sar]V[NMeL][NMeL]D[NMeF]A-Piperidide; lactam N-10) it is 15 ×10⁻⁶ cm/s.
Same read-out and setting: the figure for `CC(C)C[C@@H]1NC(=O)CN(C)C(=O)[C@H](CCCCN(C)C)NC(=O)[C@H](CC(C)C)N(C)C(=O)[C@H](Cc2ccccc2)N(C)C(=O)[C@H](C)N(C)C(=O)[C@@H](C(C)C)NC(=O)C[C@@H](C(=O)N(C)[C@@H](Cc2ccccc2)C(=O)N[C@@H](C)C(=O)N2CCCCC2)NC(=O)[C@H](CC(C)C)N(C)C(=O)[C@H](CC(C)C)N(C)C1=O` [DP-587] ([dV][NMeA][NMeF][NMeL][Lys(Me2)][Sar]L[NMeL][NMeL]D[NMeF]A-Piperidide; lactam N-10) is 3.3 ×10⁻⁶ cm/s; for `CC(C)C[C@@H]1NC(=O)[C@H](CC(C)C)N(C)C(=O)[C@H](CCCCN(C)C)NC(=O)[C@H](CC(C)C)N(C)C(=O)[C@H](Cc2ccccc2)N(C)C(=O)[C@H](CC(C)C)N(C)C(=O)[C@@H](C(C)C)NC(=O)C[C@@H](C(=O)N(C)[C@@H](Cc2ccccc2)C(=O)N[C@@H](C)C(=O)N2CCCCC2)NC(=O)[C@H](CC(C)C)N(C)C(=O)[C@H](CC(C)C)N(C)C1=O` [DP-588] ([dV][NMeL][NMeF][NMeL][Lys(Me2)][NMeL]L[NMeL][NMeL]D[NMeF]A-Piperidide; lactam N-10) it is 0.6 ×10⁻⁶ cm/s; for `C/N=C(\NC)NCCC[C@@H]1NC(=O)[C@H](CC(C)C)N(C)C(=O)[C@H](Cc2ccccc2)N(C)C(=O)[C@H](C)N(C)C(=O)[C@@H](C(C)C)NC(=O)C[C@@H](C(=O)N(C)[C@@H](Cc2ccccc2)C(=O)N[C@@H](C)C(=O)N2CCCCC2)NC(=O)[C@H](CC(C)C)N(C)C(=O)[C@H](CC(C)C)N(C)C(=O)[C@H](C(C)C)NC(=O)CN(C)C1=O` [DP-590] ([dV][NMeA][NMeF][NMeL][Arg(Me2s)][Sar]V[NMeL][NMeL]D[NMeF]A-Piperidide; lactam N-10) it is 1.4 ×10⁻⁶ cm/s.
`CC(C)C[C@@H]1NC(=O)[C@H](CCCCN(C)C)NC(=O)[C@H](Cc2ccccc2)N(C)C(=O)[C@H](CC(C)C)NC(=O)[C@H](CC(C)C)N(C)C(=O)[C@H](Cc2ccccc2)NC(=O)[C@H](CC(C)C)N(C)C(=O)[C@H](CC(C)C)N(C)C(=O)[C@H](Cc2ccccc2)NC(=O)CN(C)C(=O)C[C@@H](C(=O)N(C)[C@@H](Cc2ccccc2)C(=O)N[C@@H](C)C(=O)N2CCCCC2)NC1=O` [DP-594] ([Sar]F[NMeL][NMeL]F[NMeL]L[NMeF][Lys(Me2)]LD[NMeF]A-Piperidide; lactam N-11): the Papp at 18 hours, 50 µM was determined as 1.3 ×10⁻⁶ cm/s.

Staying with this series, now noted: membrane permeation rate (Pe); 50 mM MOPSO buffer pH 6.5 with 5.0% glycocholic acid, 37° C., 18 hours.
Turning to `CC[C@H](C)[C@H]1C(=O)N[C@@H](C(C)C)C(=O)N(C)[C@@H](Cc2ccccc2)C(=O)N[C@@H](CC(C)C)C(=O)N(C)[C@@H](Cc2ccccc2)C(=O)N[C@H](C(=O)N(C)[C@@H](Cc2ccccc2)C(=O)N[C@@H](C)C(=O)N[C@H](C(=O)N[C@@H](Cc2ccccc2)C(=O)N2CCCCC2)[C@@H](C)O)CC(=O)N[C@@H](C)C(=O)N[C@@H](CC(C)C)C(=O)N1C` [DP-572] (AL[NMeI]V[NMeF]L[NMeF]D[NMeF]ATF-Piperidide; lactam N-8), the “iPAMPA Pe” value is listed as 1.0E−07.
